Assay [1] relates to Adult normal human primary keratinocytes (tight junction integrity). The experiment in a line: Transepithelial electrical resistance (TEER) of differentiated keratinocyte monolayers. Format: cell-based. The settings on record: for % Change in TEER (additional increase): 24 h. The procedure:
(§1) Adult normal human primary keratinocytes (Invitrogen, Carlsbad, Calif., USA) were maintained in EpiLife® medium with 60 μM calcium (Invitrogen) supplemented with Human Keratinocyte Growth Supplement (HKGS) (Invitrogen) (basal medium) at 5% CO2 atmosphere. To differentiate the keratinocytes, the P5-P7 cells were plated on ThinCert™ cell culture inserts (Greiner Bio-one, Frickenhausen, Germany) at density of 10^5cells/cm^2. After overnight incubation at 5% CO2 atmosphere the basal medium was aspirated and changed to differentiation medium (DM) consisting of EpiLife® medium with 1.45 mM CaCl2 supplemented with human keratinocyte growth supplement and incubated for 4 days at 5% CO2 atmosphere. DM was changed both at both the apical and basolateral side every day. Test substances were given at fourth day after starting the differentiation.
(§2) Betaine (Danisco) were dissolved in DM, and applied to apical side of differentiated keratinocytes at amounts of 0, 10, 50, 100, 250 and 500 μM. The cells were incubated for 1, 12, and 24 hours at which points TEER was measured as described below. […]
The integrity of the monolayer was verified by measuring TEER before and after each time point using Millicell-ERS system (Millipore, Billerica, Mass., US) (26). The TEER obtained from the monolayer and the insert was subtracted with background TEER obtained from the insert to yield the monolayer resistance and multiplied with the area of the insert to obtain the result as ohm×cm^2. For the experiments with betaine and probiotics the results are expressed as a percentage change in TEER (% Change in TEER) which reflects the change in the resistance in the given time point compared to a control time point, which was the same cell monolayer before applying the test substances.

In another assay the test system is claudin-4 (CLDN4). Description: Real-time quantitative PCR of claudin-4 expression in differentiated keratinocytes. Type of assay: cell-based, human. Conditions: betaine 10-500 μM, 24 h. The procedure: as §1, §2
The differentiated keratinocytes were treated with soluble metabolites produced by probiotics, probiotic whole bacterial cells, and bacterial cell lysates from the apical side for 1 h, 8 h and 24 h at which the TEER was measured. […]

The next assay concerns occludin (OCLN). Description: Real-time quantitative PCR of occludin expression in differentiated keratinocytes. The settings on record: 24 h, p<0.05. Format: cell-based, human. The procedure: as §1, with “Test substances were given at fourth day after starting the differentiation.” left out
as §2
(§3) Real-time quantitative PCR of claudin-4 (CLDN4), occludin (OCLN), zonula occludens-1 (ZO-1) was done with TaqMan gene expression assays (Applied biosystems, Foster City, Calif., USA) designed for each specific gene in an amplification reaction of 20 μl according to manufacturer's instructions with 7500 Fast Real-time PCR System (Applied Biosystems). […]

The subject of assay [2] is zonula occludens-1 (ZO-1). Description: Real-time quantitative PCR of zonula occludens-1 expression in differentiated keratinocytes. Type of assay: cell-based, human. Conditions: betaine 10-500 μM, 24 h. The method, then: as §1, with “Test substances were given at fourth day after starting the differentiation.” left out
as §2, §3

As to `C[N+](C)(C)CC(=O)O` [betaine, Betaine], the “% Change in TEER” value in assay [1] (50 μM and higher concentrations of betaine, after 12 h, p<0.05 to p<0.001) was “remained increased”; in assay [1] (50 μM betaine, after 1 hour, p<0.05) it was “increased”; in assay [1] (lowest amount of betaine (10 μM), apical side), “remained at the basal level”. Moreover, the “% Change in TEER (additional increase)” value in assay [1] (100 μM betaine, p<0.05, mean±SE) is 41.8±2.8%; in assay [1] (500 μM betaine, p<0.01, mean±SE), 47.8±4.2%. Moreover, in the assay on claudin-4 (CLDN4), the “Expression of CLDN4” value is recorded as “remained similar to the basal levels”. Moreover, the “Expression of OCLN” value in the assay with occludin (OCLN) (100 μM betaine) and with occludin (OCLN) (250 μM betaine) was “decreased” each time. Besides, the “Expression of ZO-1” value in assay [2] is given as “remained similar to the basal levels”.

These data come from US10555977B2, “Probiotic bacteria for the topical treatment of skin disorders” (DUPONT NUTRITION BIOSCIENCES APS, priority 2011, dated 2020).
